Where “and” joins values, the source holds several entries; their conditions need not be identical. Equal values may be shown once. Where a name gives a salt, the structure may show the parent alone.
Key:
[1] = target: PRMT5/MEP50 (Homo sapiens, UniProt O14744); assay: Methyltransferase activity screen and profiling, PRMT5/MEP50, substrate Histone H2A; details: for % Enzyme Activity (relative to DMSO controls): PRMT5/MEP50, substrate Histone H2A, single-dose mode, duplicate (Data 1, Data 2), 1 μM SAM, 100 μM; for % Activity / Raw data: PRMT5/MEP50 profiling; for HILLSLOPE: Table 4, PRMT5/MEP50 dose-response curve fit
Chain of PRMT5/MEP50 (O14744 whole entry, canonical isoform): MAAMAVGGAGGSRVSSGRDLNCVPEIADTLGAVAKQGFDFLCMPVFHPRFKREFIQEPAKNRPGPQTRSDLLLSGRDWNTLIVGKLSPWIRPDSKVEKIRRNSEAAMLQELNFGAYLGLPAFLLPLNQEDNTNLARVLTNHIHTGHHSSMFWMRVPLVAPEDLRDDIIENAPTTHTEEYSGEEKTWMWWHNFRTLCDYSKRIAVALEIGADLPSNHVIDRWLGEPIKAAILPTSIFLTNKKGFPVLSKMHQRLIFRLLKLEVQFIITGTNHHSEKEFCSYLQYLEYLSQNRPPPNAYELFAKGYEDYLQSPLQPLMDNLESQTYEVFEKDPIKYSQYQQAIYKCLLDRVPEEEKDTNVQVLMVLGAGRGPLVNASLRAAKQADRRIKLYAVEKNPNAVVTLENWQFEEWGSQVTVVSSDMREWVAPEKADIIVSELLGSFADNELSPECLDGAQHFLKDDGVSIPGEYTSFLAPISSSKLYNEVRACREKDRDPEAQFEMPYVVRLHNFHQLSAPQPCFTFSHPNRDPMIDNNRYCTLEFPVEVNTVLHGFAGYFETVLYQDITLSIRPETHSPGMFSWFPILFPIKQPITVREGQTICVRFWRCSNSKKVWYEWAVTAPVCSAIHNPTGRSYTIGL
Chain of PRMT5/MEP50 (Q9BQA1 whole entry partner, canonical isoform): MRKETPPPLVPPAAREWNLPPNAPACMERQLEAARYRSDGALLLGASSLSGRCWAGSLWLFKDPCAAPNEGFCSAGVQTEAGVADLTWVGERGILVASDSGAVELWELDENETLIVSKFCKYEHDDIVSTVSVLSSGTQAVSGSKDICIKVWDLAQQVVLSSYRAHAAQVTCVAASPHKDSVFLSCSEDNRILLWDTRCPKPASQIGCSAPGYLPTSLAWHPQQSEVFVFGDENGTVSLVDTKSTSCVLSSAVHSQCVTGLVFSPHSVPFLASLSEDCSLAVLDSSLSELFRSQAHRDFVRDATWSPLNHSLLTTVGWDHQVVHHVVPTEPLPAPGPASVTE
Description: (§1) A 10 mM DMSO stock solution of each test compound was prepared.
(§2) Compounds were tested in a single-dose mode, in duplicate at the following concentrations.
(§3) Reactions were carried out at 1 μM SAM. The no inhibitor control was set as 100% activity).

[2] = target: T1, LXRα (Homo sapiens, UniProt Q13133); details: human isoform; cited from earlier work
T1 sequence (Q13133 1-447): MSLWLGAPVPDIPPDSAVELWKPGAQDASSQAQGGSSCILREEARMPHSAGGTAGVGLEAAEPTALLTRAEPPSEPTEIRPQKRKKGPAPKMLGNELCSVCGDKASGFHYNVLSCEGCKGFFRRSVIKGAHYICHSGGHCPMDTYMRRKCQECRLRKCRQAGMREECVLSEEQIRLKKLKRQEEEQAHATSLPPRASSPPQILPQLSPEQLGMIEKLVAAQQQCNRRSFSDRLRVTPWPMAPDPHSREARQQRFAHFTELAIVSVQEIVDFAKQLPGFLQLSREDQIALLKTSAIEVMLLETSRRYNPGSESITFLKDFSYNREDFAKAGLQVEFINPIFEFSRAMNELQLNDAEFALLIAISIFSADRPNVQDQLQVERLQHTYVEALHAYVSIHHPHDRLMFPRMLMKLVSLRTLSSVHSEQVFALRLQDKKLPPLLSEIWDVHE

[3] = target: PRMT1 (Homo sapiens, UniProt Q99873); assay: Methyltransferase activity screen, PRMT1, substrate Histone H4; details: single-dose mode, duplicate (Data 1, Data 2), 1 μM SAM, 100 μM
Chain of PRMT1 (Q99873 whole entry): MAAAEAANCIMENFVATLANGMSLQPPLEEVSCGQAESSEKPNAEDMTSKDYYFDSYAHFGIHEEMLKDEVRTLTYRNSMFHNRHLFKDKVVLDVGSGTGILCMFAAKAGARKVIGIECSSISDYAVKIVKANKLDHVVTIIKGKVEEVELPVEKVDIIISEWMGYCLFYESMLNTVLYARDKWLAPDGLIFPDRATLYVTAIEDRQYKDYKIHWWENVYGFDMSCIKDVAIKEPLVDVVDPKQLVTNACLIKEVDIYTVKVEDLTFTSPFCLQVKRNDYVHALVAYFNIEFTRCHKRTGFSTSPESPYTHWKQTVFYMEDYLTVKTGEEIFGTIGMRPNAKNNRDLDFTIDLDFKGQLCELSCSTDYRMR
Description: as §1, §2, §3

[4] = system: LXR and FXR; details: cited from earlier work
[5] = target: PRMT6 (Homo sapiens, UniProt Q96LA8); assay: Methyltransferase activity screen, PRMT6, substrate Histone H3; details: for % Enzyme Activity (relative to DMSO controls): PRMT6, substrate Histone H3, single-dose mode, duplicate (Data 1, Data 2), 1 μM SAM, 100 μM
Chain of PRMT6 (Q96LA8 whole entry): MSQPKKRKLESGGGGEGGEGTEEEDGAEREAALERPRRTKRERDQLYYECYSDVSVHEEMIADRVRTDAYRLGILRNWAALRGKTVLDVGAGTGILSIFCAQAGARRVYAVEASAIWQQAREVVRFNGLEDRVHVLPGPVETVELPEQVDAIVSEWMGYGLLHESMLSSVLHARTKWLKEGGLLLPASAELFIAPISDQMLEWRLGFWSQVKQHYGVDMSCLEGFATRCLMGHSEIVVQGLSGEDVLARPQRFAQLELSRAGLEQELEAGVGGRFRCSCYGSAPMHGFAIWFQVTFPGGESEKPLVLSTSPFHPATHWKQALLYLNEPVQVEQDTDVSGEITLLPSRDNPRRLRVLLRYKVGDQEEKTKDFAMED
Description: as §1, §2, §3

[6] = target: PRMT5 (Homo sapiens, UniProt O14744); assay: Methyltransferase activity screen, PRMT5, substrate Histone H2A; details: for % Enzyme Activity (relative to DMSO controls): PRMT5, substrate Histone H2A, single-dose mode, duplicate (Data 1, Data 2), 1 μM SAM, 100 μM
Chain of PRMT5 (O14744 whole entry): as the sequence (O14744 whole entry, canonical isoform) above
Description: as §1, §2, §3

[7] = target: T2, TGR5 (Homo sapiens, UniProt Q8TDU6); details: cited from earlier work
T2 sequence (Q8TDU6 1-330): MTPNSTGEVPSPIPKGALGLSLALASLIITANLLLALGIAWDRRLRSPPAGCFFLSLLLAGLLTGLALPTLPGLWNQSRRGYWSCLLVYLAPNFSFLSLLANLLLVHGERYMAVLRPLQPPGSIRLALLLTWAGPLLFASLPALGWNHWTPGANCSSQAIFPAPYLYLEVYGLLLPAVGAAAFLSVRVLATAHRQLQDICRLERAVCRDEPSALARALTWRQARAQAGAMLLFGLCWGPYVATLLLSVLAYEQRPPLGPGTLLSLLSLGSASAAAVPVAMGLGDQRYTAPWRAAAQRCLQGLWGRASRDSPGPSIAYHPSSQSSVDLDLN

Structure (SMILES) | % Activity ([1]; Conc. 1.00E−04 M) | Raw data ([1]; Conc. 1.00E−04 M) | % Activity ([1]; Conc. 1.11E−05 M) | Raw data ([1]; Conc. 1.11E−05 M) | % Activity ([1]; Conc. 1.23E−06 M) | Raw data ([1]; Conc. 1.23E−06 M) | % Activity ([1]; Conc. 1.37E−07 M) | Raw data ([1]; Conc. 1.37E−07 M) | % Activity ([1]; Conc. 1.52E−08 M) | Raw data ([1]; Conc. 1.52E−08 M) | % Activity ([1]; Conc. 3.33E−05 M) | Raw data ([1]; Conc. 3.33E−05 M) | % Activity ([1]; Conc. 3.70E−06 M) | Raw data ([1]; Conc. 3.70E−06 M) | % Activity ([1]; Conc. 4.12E−07 M) | Raw data ([1]; Conc. 4.12E−07 M) | % Activity ([1]; Conc. 4.57E−08 M) | Raw data ([1]; Conc. 4.57E−08 M) | % Activity ([1]; Conc. 5.08E−09 M) | Raw data ([1]; Conc. 5.08E−09 M) | other results
Cl.O=C(O)Cc1cccc(OCCCN(Cc2cccc(C(F)(F)F)c2Cl)CC(c2ccccc2)c2ccccc2)c1 [GW 3965, 3-[3-[[[2-chloro-3-(trifluoromethyl)phenyl]methyl](2,2-diphenylethyl)amino]propoxy]-benzeneacetic acid, monohydrochloride] | 1.47% | 6431 | 124.34% | 544281 | 105.86% | 463366 | 103.73% | 454053 | 95.29% | 417100 | 137.65% | 602561 | 112.86% | 494019 | 103.66% | 453763 | 99.34% | 434862 | 98.94% | 433085 | IC50 [1]: 84.2 µM; % Enzyme Activity (relative to DMSO controls) ([1]; monohydrochloride): 1.54% and 1.23%; HILLSLOPE [1]: −24.99; EC50 [2]: 0.29 µM; % Enzyme Activity (relative to DMSO controls) ([3]; monohydrochloride): 6.93% and 4.55%; affinity for LXR and FXR [4]: nanomolar affinity; % Enzyme Activity (relative to DMSO controls) ([5]; monohydrochloride): 83.29% and 103.66%; % Enzyme Activity (relative to DMSO controls) ([6]; monohydrochloride): 90.29% and 97.35%
CC(C)c1onc(-c2c(Cl)cccc2Cl)c1COc1ccc(C=Cc2cccc(C(=O)O)c2)c(Cl)c1 [GW 4064, 3-[2-[2-chloro-4-[[3-(2,6-dichlorophenyl)-5-(1-methylethyl)-4-isoxazolyl]methoxy]phenyl]ethenyl]-benzoic acid] | 5.70% | 24954 | 117.75% | 515444 | 105.80% | 463109 | 99.86% | 437127 | 96.95% | 424387 | 120.51% | 527528 | 103.51% | 453113 | 99.48% | 435450 | 97.26% | 425743 | 94.60% | 414110 | IC50 [1]: 79.2 µM; HILLSLOPE [1]: −12.23; affinity for LXR and FXR [4]: nanomolar affinity
CC[C@H]1[C@@H](O)[C@@H]2[C@H](CC[C@]3(C)[C@@H]([C@H](C)CCC(=O)O)CC[C@@H]23)[C@@]2(C)CC[C@@H](O)C[C@@H]12 [INT-747, 6α-Ethyl-chenodeoxycholic acid] |  |  |  |  |  |  |  |  |  |  |  |  |  |  |  |  |  |  |  |  | % Enzyme Activity (relative to DMSO controls) [1]: 95.73% and 93.91%; % Enzyme Activity (relative to DMSO controls) [3]: 112.72% and 115.42%; % Enzyme Activity (relative to DMSO controls) [5]: 312.24% and 288.93%; % Enzyme Activity (relative to DMSO controls) [6]: 106.35% and 105.51%
CN(C)C(=N)N=C(N)N [Metformin, N, N-dimethyl-imidodicarbonimidic diamide, monohydrochloride] |  |  |  |  |  |  |  |  |  |  |  |  |  |  |  |  |  |  |  |  | % Enzyme Activity (relative to DMSO controls) ([1]; monohydrochloride): 88.20% and 82.84%; % Enzyme Activity (relative to DMSO controls) ([3]; monohydrochloride): 100.50% and 101.26%; % Enzyme Activity (relative to DMSO controls) ([5]; monohydrochloride): 90.66% and 90.30%; % Enzyme Activity (relative to DMSO controls) ([6]; monohydrochloride): 98.74% and 84.85%
CN(CCOc1ccc(CC2SC(=O)NC2=O)cc1)c1ccccn1 (stereo not drawn) [Rosiglitazone, 5-[[4-[2-(methyl-2-pyridinylamino)ethoxy]phenyl]methyl]-2,4-thiazolidinedione] |  |  |  |  |  |  |  |  |  |  |  |  |  |  |  |  |  |  |  |  | inhibition of PRMT5 ([6]; at a concentration of 100 μM): no effect
Nc1ncnc2c1ncn2[C@@H]1O[C@H](CSCC[C@H](N)C(=O)O)[C@@H](O)[C@H]1O [SAH, S-(5′-Adenosyl)-L-homocysteine] | 5.40% | 23637 | 23.32% | 102087 | 61.44% | 268933 | 87.83% | 384445 | 90.12% | 394475 | 11.73% | 51347 | 42.02% | 183946 | 72.99% | 319517 | 96.88% | 424069 | 91.72% | 401476 | HILLSLOPE [1]: −0.78; IC50 [5]: 0.623 µM
Cc1onc(-c2ccccc2Cl)c1C(=O)N(C)c1ccc(Cl)cc1 [TGR5 agonist, 3-(2-chlorophenyl)-N-(4-chlorophenyl)-N,5-dimethyl-4-isoxazolecarboxamide] |  |  |  |  |  |  |  |  |  |  |  |  |  |  |  |  |  |  |  |  | % Enzyme Activity (relative to DMSO controls) [1]: 90.97% and 82.32%; % Enzyme Activity (relative to DMSO controls) [3]: 100.02% and 92.67%; pEC50, activator of TGR5 [7]: 6.8-7.5; % Enzyme Activity (relative to DMSO controls) [5]: 70.12% and 73.79%; % Enzyme Activity (relative to DMSO controls) [6]: 84.41% and 87.02%

Source: patent US20160271149A1, “[…] COMPOUNDS THAT […] PROTEIN ARGININE […] ACTIVITY FOR REDUCING TUMOR CELL PROLIFERATION” (Epinova Therapeutics Corp., priority 2015, published 2016)
